Source: patent EP0706514B1, “COMPOUNDS AND METHODS FOR INHIBITION OF HIV AND RELATED VIRUSES” (MEDIVIR AB, priority 1993, dated 1995)
Where “and” joins values, the source holds several entries; their conditions need not be identical. Equal values may be shown once. Read-outs that look alike come from different tables or passages of the source.

Assays:
recombinant HIV-RT = target: T1, recombinant HIV-RT (Human immunodeficiency virus type 1 group M subtype B, UniProt P04585); assay: biochemical
T1 construct: recombinant HIV-RT (diluted in virus disruption buffer to give 200.000 cpm)
Protocol: 100 mM Tris-HCl pH 7.6, 100 mM KCl, 4 mM MgCl2, 4 mM DTT, 275 mg/ml BSA, 0.5 mg (rA)n(dT)12-18 and 0.3 mM ^3H-=dTTP (specific activity 18.000 cpm/mol). After 60 minutess of incubation 40 ml in duplicate were spotted on paper discs and washed in 5% TCA. After rinsing the paper discs in ethanol they were dried and counted in scintillation fluid.

HIV virus = assay: Test A (XTT): reduction of virus-induced cytotoxicity in MT4 cells; format: cell-based; conditions: for % inhibition: Test A
Protocol: Tests A, B, C, and D (XTT)
MT4 cells in a medium of RPMI 1640, 5% FCS, penicillin/streptomycin are adjusted to 2x10^5 cells/ml and seeded into microplates (96 wells/plate) […] cell suspension/well giving 2x10^4 cells/well. The compound to be tested is made into a 10 mg/ml mixture in DMSO and stored at -20°C. […] Further dilutions to […] are made in medium containing microplates. Fifty […] of the 400, 40, and 4 mg/ml are transferred to the cell-containing microplates with a multi-channel pipette (final concentration: […]). Finally, […] of virus suspension is added to each well (with a repetitive "Eppendorf" multipipett). […] The plate is put into a plastic bag and incubated for six days in CO2 atmosphere. To each well in the plate is added […] of XTT ((2,3-bis[2-methoxy-4-nitro-5-sulfophenyl]-5-[(phenylamin o)carbonyl]-2H-tetrazolium hydroxide), (1 mg/ml 0.01-0.02 mM N-metyl-phenazonium methosulfate). After six hours of incubation in CO2 atmosphere the plates are covered with adhesive plate sealers and gently mixed on a vortex. Optical densities are determined at a wavelength of 450 nm and a reference wavelength of 650 nm. The percent reduction of cytotoxocity caused by the virus infection is calculated as follows: (OD450 compound - OD450 inf cells)/(OD450 uninf cells - OD450 inf cells)x 100 [formula]

[1] = Human immunodeficiency virus 1, MT4
[2] = Human immunodeficiency virus 1, MT4, Test A, MT4 cells, 0.1 µg/ml, read-out: % inhibition
[3] = Human immunodeficiency virus 1, MT4, Test A, MT4 cells, 1 µg/ml
[4] = Human immunodeficiency virus 1, MT4, Test A, MT4 cells, 100 µg/ml, read-out: % inhibition
[5] = IC50, Test I, several values in a cell are repeat determinations
[6] = Test I, several values in a cell are repeat determinations, read-out: IC50 (converted)

Question: For `O=C(Nc1ccc(Cl)cn1)N[C@H]1C[C@H]1c1c(F)cccc1F`, which IC50 (recombinant HIV-RT; IC50, Test I) is on record?
Answer: 2.47 nM and 1.54 nM

Question: And the “% inhibition” value (recombinant HIV-RT; Test I, 0.001 µg/ml)?
Answer: 62%

Question: And the inhibition at 0.001 µg/mL (recombinant HIV-RT; Test I, 0.001 µg/ml)?
Answer: 55%

Question: What about the “% inhibition” value (recombinant HIV-RT; Test I, 0.01 µg/ml) of the same compound?
Answer: 93%

Question: And the inhibition at 0.01 µg/mL (recombinant HIV-RT; Test I, 0.01 µg/ml)?
Answer: 89%

Question: What about the inhibition at 0.1 µg/mL (recombinant HIV-RT; Test I, 0.1 µg/ml (column 4)) of the same compound?
Answer: 98%

Question: And the inhibition at 1 µg/mL (recombinant HIV-RT; Test I, 1 µg/ml)?
Answer: 100%

Question: And the inhibition at 0.1 µg/mL (HIV virus; [1])?
Answer: 100%

Question: And the inhibition at 10 µg/mL (HIV virus; [1])?
Answer: 100%

Question: What about the inhibition at 100 µg/mL (HIV virus; [1]) of the same compound?
Answer: 100%

Question: What about the inhibition at 0.001 µg/mL (HIV virus; Human immunodeficiency virus 1, MT4, Test A, MT4 cells, 0.001 µg/ml) of the same compound?
Answer: 7%

Question: What about the inhibition at 0.01 µg/mL (HIV virus; Human immunodeficiency virus 1, MT4, Test A, MT4 cells, 0.01 µg/ml) of the same compound?
Answer: 80%

Question: What about the inhibition at 0.1 µg/mL (HIV virus; [2]) of the same compound?
Answer: 82%

Question: And the inhibition at 1 µg/mL (HIV virus; [3])?
Answer: 86%

Question: And the inhibition at 100 µg/mL (HIV virus; [4])?
Answer: 3%

Question: What about the “% inhibition” value (HIV virus; MT4 cells, 0.001 µg/ml) of the same compound?
Answer: 8%

Question: And the “% inhibition” value (HIV virus; MT4 cells, 0.01 µg/ml)?
Answer: 81%

Question: And the “% inhibition” value (HIV virus; MT4 cells, 1 µg/ml)?
Answer: 90%

Question: Which IC50 (recombinant HIV-RT; IC50, Test I) does the source give for `CCOc1ccc(F)c(CCNC(=O)Nc2ccc(Br)cn2)c1Cl` here?
Answer: 4.8 nM and 3.36 nM

Question: And the “% inhibition” value (recombinant HIV-RT; Test I, 0.001 µg/ml)?
Answer: 45%

Question: And the inhibition at 0.001 µg/mL (recombinant HIV-RT; Test I, 0.001 µg/ml)?
Answer: 41%

Question: `O=C(NCCc1c(F)cccc1F)Nc1ccc(Cl)cn1` was tested. Which inhibition at 0.1 µg/mL (HIV virus; [2]) did it give?
Answer: 92%

Question: And the inhibition at 1 µg/mL (HIV virus; [3])?
Answer: 87%

Question: What about the inhibition at 10 µg/mL (HIV virus; Human immunodeficiency virus 1, MT4, Test A, MT4 cells, 10 µg/ml, read-out: % inhibition) of the same compound?
Answer: 93%

Question: What about the inhibition at 100 µg/mL (HIV virus; [4]) of the same compound?
Answer: 0%

Question: What about the “% inhibition” value (HIV virus; MT4 cells, 0.001 µg/ml) of the same compound?
Answer: 6%

Question: And the “% inhibition” value (HIV virus; MT4 cells, 0.01 µg/ml)?
Answer: 51% and 94%

Question: What about the “% inhibition” value (HIV virus; MT4 cells, 1 µg/ml) of the same compound?
Answer: 98%

Question: `N#Cc1ccc(NC(=O)N[C@@H]2C[C@@H]2c2c(F)cccc2F)nc1` (racemic) [Example 26, (+,-)-N-(cis-2-(2,6-Difluorophenyl)-cyclopropyl)-N'-(5-cyanopyrid-2-yl)-urea] was tested. Which IC50 (recombinant HIV-RT; [5]) did it give?
Answer: 28.6 nM and 31.8 nM

Question: Which IC50 (recombinant HIV-RT; [5]) does the source give for `COCOc1c(C(C)=O)ccc(F)c1[C@H]1C[C@H]1NC(=O)Nc1ccc(Cl)cn1` (racemic) [Example 56, (+,-)-N-(cis-2-(5-Acetyl-2-fluoro-6-methoxymethoxyphenyl)cyclopropyl)-N'-(5-chloropyrid-2-yl)-urea] here?
Answer: 5.64 nM and 5.39 nM

Question: With `CC(=O)c1ccc(F)c([C@H]2C[C@H]2NC(=O)Nc2ccc(Cl)cn2)c1O` (racemic) [Example 57, (+,-)-N-(cis-2-(5-Acetyl-2-fluoro-6-hydroxyphenyl)cyclopropyl)-N'-(5-chloropyrid-2-yl)-urea] as the compound, how does the IC50 (recombinant HIV-RT; [5]) read?
Answer: 1.1 nM (2×) and 1.37 nM

Question: With `O=C(Nc1ccc(Cl)cn1)N[C@@H]1C[C@@H]1c1c(F)ccc(O)c1Cl` (racemic) [Example 64, (+, -)-N-(cis-2-(2-chloro-3-hydroxy-6-fluorophenyl)cyclopropyl)-N'-(5-chloropyrid-2-yl)-urea] as the compound, how does the IC50 (recombinant HIV-RT; [5]) read?
Answer: 3.65 nM

Question: `N#Cc1ccc(NC(=O)N[C@@H]2C[C@@H]2c2c(F)cccc2Cl)nc1` (relative stereo) [Example 33, N-(cis-2-(2-chloro-6-fluorophenyl)cyclopropyl)-N'-(5-cyanopyrid-2-yl)-urea] was tested. Which IC50 (recombinant HIV-RT; [5]) did it give?
Answer: 1.51 nM

Question: `O=C(Nc1ccc(Cl)cn1)N[C@@H]1C[C@@H]1c1c(F)cccc1Cl` (relative stereo) [Example 34, N-(cis-2-(2-chloro-6-fluorophenyl)-cyclopropyl) -N'-(5-chloropyrid-2-yl)-urea] was tested. Which IC50 (recombinant HIV-RT; [5]) did it give?
Answer: 1.18 nM

Question: For `O=C(Nc1ccc(Br)cn1)NC1CC1c1c(F)cccc1F` [Example 27, (1R,2S)-N-(cis-2-(2,6-Difluorophenyl)-cyclopropyl)-N'-5-bromopyrid-2-yl)-urea], which IC50 (recombinant HIV-RT; [6]) is on record?
Answer: 1.36 nM and 1.63 nM

Question: How did the IC50 (recombinant HIV-RT; [6]) turn out when `CC(=O)c1ccc(F)c(CCNC(=O)Nc2ccc(Cl)cn2)c1O` [Example 58] was run?
Answer: 108 nM
